Legend:
[1] = target: T1, His-TRADD-N (Homo sapiens, UniProt Q15628); assay: Thermal shift assay with His-TRADD-N; type: binding
T1 construct: expression constructs encoding Flag-TRADD-N(1-179) and HA-TRADD-C(180-312); made in house; host or cells: E. coli BL21 (DE3), pET-28a
Experimental: Recombinant WT and mutant His-TRADD-N(aal-179) protein fragment was expressed in BL21 (DE3) E. coli after induction with 0.5 mM IPTG overnight at 16C. ^15N-labeled TRADD-N domain protein was purified from E. co/i grown at 16C in minimal medium. Bacteria were harvested and disrupted by a high-pressure homogenizer and purified by Ni^2+ affinity resin (GE Healthcare). All proteins were further purified by size exclusion chromatograph on a Superdex 75 column (GE Healthcare) in a buffer containing 20 mM imidazole (pH6.6), 200 mM NaCl, 20 mM DTT and 0.05% NaN3. All NMR samples were in the same buffer at concentrations between 0.2-0.4 mM with 90% H2O/10% D2O. […]
To determine stability, purified proteins were made to a final concentration of 1 μg/l. […] The reaction was run from 25C, ramping up in increments of 0.05° C./s to a final temperature of 95C with fluorescence detection throughout the experiment to generate a dataset. Melting temperature of the protein (Tm) was determined by performing non-linear fitting of the dataset to a Boltzmann Sigmoidal curve in GraphPad Prism with the following equation: Y=Bottom+(Top-Bottom)/[1+exp(Tm-X/Slope)], where Y=fluorescence emission in arbitrary units; X=temperature; Bottom=baseline fluorescence at low temperature; Top=maximal fluorescence at top of the dataset; Slope=describes the steepness of the curve, with larger values denoting shallower curves.

[2] = target: T2, TRADD-N and TRAF2-C (Homo sapiens, UniProt Q15628); assay: Cell-free FRET assay TRADD-N / TRAF2-C; type: biochemical; settings: incubated 1 h
T2 construct: expression constructs encoding Flag-TRADD-N(1-179) and HA-TRADD-C(180-312); expressed in transfected cells; host or cells: HEK293T
T2 sequence (Q15628 1-179): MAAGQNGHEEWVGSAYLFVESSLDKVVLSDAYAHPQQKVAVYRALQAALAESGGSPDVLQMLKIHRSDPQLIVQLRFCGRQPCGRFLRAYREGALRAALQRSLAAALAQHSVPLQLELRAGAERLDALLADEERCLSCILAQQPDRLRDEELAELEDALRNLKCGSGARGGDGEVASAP
Experimental: When FRET occurs, the acceptor mVenus-TRADDN-Flag (mV-TRADDN) emission will increase and the donor emission will decrease. Apt-1 was added to the system with indicated concentration and incubated for 1 h, then subjected to FRET assay.
mVenus- and Flag-tagged TRADD-N(mVenus-TRADDN-Flag) and mCerulean- and Flag-tagged TRAF2C (Flag-TRAF2C-mCerulean) was expressed in HEK293T cells for 48 h. Then cells were lysed in NP-40 buffer followed by immunoprecipitation using anti-Flag affinity gel. The proteins were eluted by 5 mg/ml 3×Flag peptide and exchanged into assay buffer (120 mM NaCl, 20 mM NaH2PO4/Na2HPO4, pH 7.4) by dialysis for FRET assay. The proteins were added into Coming black 96-well microtiter plates in triplicates at a final concentration of 1 μM. Apt-1 was incubated with the proteins for 1 h before measurement. Measurements were performed on a fluorescent plate reader (Victor3, 1420 Multilabel counter, Perkin Elmer). The following filter set was used: mCerulean filter set (excitation: 430/15 nm, emission: 460/20 nm); mVenus filter set (excitation: 485/15, emission 535/15); FRET filter set (430/15 nm, emission 450-600 nm).

[3] = system: panel of 97 kinases; assay: KINOMEscan profiling; type: binding; settings: 10 μM
Experimental: FIG. 5d depicts the KINOMEscan profiling of Apt-1 (10 μM) against a panel of 97 kinases. Binding interactions reported as % Ctrl, where lower numbers indicate stronger hits. Negative control=DMSO (100% Ctrl); positive control=control compound (0% Ctrl); 0<% Ctrl <0.1 Very Strong; 0.1≤% Ctrl <1 Strong; 1≤% Ctrl <10 Medium; […] Weak; % Ctrl ≥35 No effects. No significant binding of Apt-1 to this panel of 97 kinases was detected. CellTiter-Glo was used to determine cell survival in (a), (b), and (c).
KINOMEscan profiling was used to assess the interaction of Apt-1 with a panel of 97 kinases as a custom service (DiscoverX/Eurofins, San Diego, Calif. USA). Briefly, DNA-tagged recombinant kinases were produced in E. coli. The assay plates with kinases were incubated at room temperature with shaking for 1 h and the affinity beads were washed with wash buffer (1×PBS, 0.05% Tween 20). The beads were then re-suspended in elution buffer. The kinase concentration in the eluates was measured by qPCR. Apt-1 were screened at […], and the results for primary screen binding interactions are reported as % Ctrl, where lower numbers indicate stronger hits in the matrix.

[4] = system: PS19 mice injected with tau pffs; assay: Tau pff transmission model in PS19 mice, Apt-1 delivered intracerebroventricularly

T1 sequence (Q15628 1-179): as above

## CN1CCN=C1SC(C(=O)NC1CCCCCC1)c1ccccc1 (centres unmarked) [Compound 30]
[1]
  increase of Tm of His-TRADD-N: 3.7 °C
[2]
  binding of TRADD-N to TRAF2-C (FRET): dose-dependently reduced
[3]
  off-target effects on 97 kinase targets: no significant off-target effects
[4]; 20 mM Apt-1 ICV pump, one month or one week
  survival or behavior of the mice: no apparent difference in survival or behavior
[4]; Apt-1 for 1 week, 3 weeks after pffs
  accumulation of tangle-like tau aggregates, delayed dosing: effectively reduce the accumulation of tangle-like tau aggregates
[4]; FIG. 3a
  autophagy and levels of tau in hippocampus: induce autophagy and reduce the levels of tau
[4]; FIG. 3b, 3c
  neurofibrillary tangle-like pathogenesis induced by pffs (AT8, MC1): reduced neurofibrillary tangle-like pathogenesis
[4]; FIG. 3d, 3e
  activated pRIPK1+ and apoptotic TUNEL+ cells in CA1 hippocampus: inhibited

Reference: patent US20230219898A1, “COMPOUNDS AND METHODS FOR BLOCKING APOPTOSIS AND INDUCING AUTOPHAGY” (President and Fellows of Harvard College, priority 2020, published 2023)
